This note sets out measurements from patent publication US20260216218A1, “CANNABINOID COMPOSITIONS, AND USES THEREOF IN TREATMENT OF NEURODEGENERATIVE DISEASES OR DISORDERS AND CANCERS” (Biopharmaceutical Research Company, priority 2023, published 2026).

The test concerns BR5270 transgenic Caenorhabditis elegans strain. In words: Survival (lifespan) in the preclinical Tau C. elegans model. It counts as in vivo. The following applies: for Survival of C. elegans: 40 μM; for % Alive: BR5270, 40 μM. Here is the method:
Many neurodegenerative diseases and conditions associated with neuronal insult are characterized by intracellular aggregates of the microtubule associated protein Tau. […] Due to the significant impact on lifespan and locomotion defect produced by this model, time/cost-effective and high throughput acquisition of data, the C. elegans model of tauopathy serves as an advantageous screening tool for the discovery of novel modulators of neurodegeneration.
Cannabinoid botanical drug substances (20 μM, 40 μM, 80 μM) were prepared in accordance with the protocol described in Example 1 above. The exemplary cannabinoid botanical drug substance used in the study of this example includes CBD, CBG and THC present as the major components in a ratio of 50:20:1.
The effect of the two different complex botanical mixtures described above were compared to the comparative control, cannabidiol (40 μM) and a no treatment negative control in the BR5270 transgenic strain. Additional no-treatment negative control and healthspan extension positive control (cannabidiol 40 μM) in wild-type arms served as added comparators. All examinations were performed in triplicate. The impact of three doses of each compound on animal survival and activity levels were examined on days 4, 8, 12, and 16 of animal life. These time points represent the first day of adulthood, early-, mid-, and late-life periods in the C. elegans lifespan.

Take `C=C(C)[C@@H]1CCC(C)=C[C@H]1c1c(O)cc(CCCCC)cc1O` [CBD, cannabidiol]: the “Survival of C. elegans” value reads like this: (Day 12 (Table 1b summary)) 39; (Day 16 (Table 1b summary)) 10. Also, the “% Alive” value (day 4 of animal life) was determined as 100%, the “% Alive” value (day 8 of animal life) stood at 73.17%, the “% Alive” value (day 12 of animal life) stood at 39.39% and the “% Alive” value (day 16 of animal life) turned out to be 9.738%.
